Patent publication US7132504B2, “Hepatitis C virus inhibitors” (Bristol-Myers Squibb Company, priority 2003, dated 2006)

Legend:
[1] = molecular target: T1, porcine pancreatic elastase (PPE) (Sus scrofa, UniProt P00772); assay: Specificity assay, porcine pancreatic elastase; assay type: biochemical; conditions: 2 h enzyme-inhibitor pre-incubation
T1 construct: purchased Sigma
Experimental: The specificities of compounds of the present invention were determined against a variety of serine proteases: human neutrophil elastase (HNE), porcine pancreatic elastase (PPE) and human pancreatic chymotrypsin and one cysteine protease: human liver cathepsin B. In all cases a 96-well plate format protocol using colorimetric p-nitroaniline (pNA) substrate specific for each enzyme was used as described previously (PCT Patent Application No. WO 00/09543) with some modifications to the serine protease assays. All enzymes were purchased from Sigma while the substrates were from Bachem.
Each assay included a 2 h enzyme-inhibitor pre-incubation at room temperature followed by addition of substrate and hydrolysis to ˜30% conversion as measured on a Spectramax Pro microplate reader. Compound concentrations varied from 100 to 0.4 μM depending on their potency. […]
The percentage of inhibition was calculated using the formula: [1−((UVinh−UVblank)/(UVctl−UVblank))]×100 […]

[2] = molecular target: T2, NS3/4A protease complex, J4L6S strain (Hepatitis C virus genotype 1b, UniProt O92972, C1454S/C1711G); assay: Recombinant HCV NS3/4A protease complex FRET peptide assay, J4L6S strain; assay type: biochemical, HCV genotype 1b (J4L6S)
T2 construct: DNA encoding the recombinant HCV NS3/4A protease complex (amino acids 1027 to 1711) for these strains; inferred from pET21b vector and Ni-NTA purification; made in house; host or cells: Escherichia coli BL21 (DE3), pET21b
T2 sequence (O92972 1027-1711 C1454S/C1711G, one chain of several): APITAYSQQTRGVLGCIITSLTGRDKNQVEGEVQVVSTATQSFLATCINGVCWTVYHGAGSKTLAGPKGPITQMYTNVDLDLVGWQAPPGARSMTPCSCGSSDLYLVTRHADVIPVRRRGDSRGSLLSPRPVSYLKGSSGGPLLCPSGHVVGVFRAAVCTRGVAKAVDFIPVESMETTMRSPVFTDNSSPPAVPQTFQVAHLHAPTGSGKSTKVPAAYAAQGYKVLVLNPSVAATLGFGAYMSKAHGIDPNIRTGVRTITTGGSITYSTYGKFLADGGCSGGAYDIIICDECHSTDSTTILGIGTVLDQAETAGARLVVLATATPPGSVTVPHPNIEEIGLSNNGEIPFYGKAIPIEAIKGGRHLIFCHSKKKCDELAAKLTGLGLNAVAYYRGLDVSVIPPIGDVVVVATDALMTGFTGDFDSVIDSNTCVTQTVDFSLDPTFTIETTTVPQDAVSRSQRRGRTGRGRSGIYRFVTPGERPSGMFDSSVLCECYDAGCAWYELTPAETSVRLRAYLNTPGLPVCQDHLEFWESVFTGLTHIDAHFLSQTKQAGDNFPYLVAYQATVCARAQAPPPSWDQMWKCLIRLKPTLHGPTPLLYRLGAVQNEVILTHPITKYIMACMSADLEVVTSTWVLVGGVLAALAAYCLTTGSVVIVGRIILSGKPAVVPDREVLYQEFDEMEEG
Text: (§1) The purpose of this in vitro assay was to measure the inhibition of HCV NS3 protease complexes, derived from the BMS strain, H77 strain or J416S strain, as described below, by compounds of the present invention. This assay provides an indication of how effective compounds of the present invention would be in inhibiting HCV proteolytic activity.
(§2) Serum from an HCV-infected patient was obtained from Dr. T. Wright, San Francisco Hospital. An engineered full-length cDNA (compliment deoxyribonucleic acid) template of the HCV genome (BMS strain) was constructed from DNA fragments obtained by reverse transcription-PCR (RT-PCR) of serum RNA (ribonucleic acid) and using primers selected on the basis of homology between other genotype 1a strains. From the determination of the entire genome sequence, a genotype 1a was assigned to the HCV isolate according to the classification of Simmonds et al. (See P Simmonds, K A Rose, S Graham, S W Chan, F McOmish, B C Dow, E A Follett, P L Yap and H Marsden, J. Clin. Microbiol., 31(6), 1493–1503 (1993)). […]

[3] = molecular target: T3, NS3/4A protease complex, H77 strain (Hepatitis C virus genotype 1a, UniProt P27958, C1454S/C1711G); assay: Recombinant HCV NS3/4A protease complex FRET peptide assay, H77 strain; assay type: biochemical, HCV genotype 1a (H77)
T3 construct: DNA encoding the recombinant HCV NS3/4A protease complex (amino acids 1027 to 1711) for these strains; inferred from pET21b vector and Ni-NTA purification; made in house; host or cells: Escherichia coli BL21 (DE3), pET21b
T3 sequence (P27958 1027-1711 C1454S/C1711G, one chain of several): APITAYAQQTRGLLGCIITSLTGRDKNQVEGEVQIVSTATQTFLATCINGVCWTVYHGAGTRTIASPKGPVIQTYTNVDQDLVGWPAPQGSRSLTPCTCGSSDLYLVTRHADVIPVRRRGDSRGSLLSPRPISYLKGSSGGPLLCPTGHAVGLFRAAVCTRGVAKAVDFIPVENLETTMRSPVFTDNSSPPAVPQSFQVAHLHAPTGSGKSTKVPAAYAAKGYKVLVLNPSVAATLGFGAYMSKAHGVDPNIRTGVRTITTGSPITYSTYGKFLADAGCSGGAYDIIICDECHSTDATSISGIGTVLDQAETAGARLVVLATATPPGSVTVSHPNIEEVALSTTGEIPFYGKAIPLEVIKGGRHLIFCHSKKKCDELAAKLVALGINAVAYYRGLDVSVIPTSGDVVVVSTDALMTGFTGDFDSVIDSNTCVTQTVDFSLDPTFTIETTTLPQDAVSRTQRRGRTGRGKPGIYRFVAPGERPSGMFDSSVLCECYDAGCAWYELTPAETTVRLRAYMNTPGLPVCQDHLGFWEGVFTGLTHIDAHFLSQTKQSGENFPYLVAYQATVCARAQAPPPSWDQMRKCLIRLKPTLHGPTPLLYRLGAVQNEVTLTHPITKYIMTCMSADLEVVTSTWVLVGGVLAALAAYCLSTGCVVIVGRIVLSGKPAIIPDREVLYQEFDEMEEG
Text: as §1, §2

T1 sequence (P00772 27-266): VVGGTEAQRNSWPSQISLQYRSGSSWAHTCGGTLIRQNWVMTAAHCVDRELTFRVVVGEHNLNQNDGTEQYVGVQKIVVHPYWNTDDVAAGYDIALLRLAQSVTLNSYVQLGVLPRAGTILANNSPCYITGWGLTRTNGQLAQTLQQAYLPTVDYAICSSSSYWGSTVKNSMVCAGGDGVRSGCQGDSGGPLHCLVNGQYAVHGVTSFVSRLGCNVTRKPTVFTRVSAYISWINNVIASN

SMILES: C=CC1C[C@]1(NC(=O)[C@@H]1C[C@@H](Oc2cc(-c3ccccc3)nc3cc(OC)ccc23)CN1C(=O)[C@@H](NC(=O)OC)C(C)(C)C)C(=O)NS(=O)(=O)N(C)Cc1ccccc1 (stereo partly drawn) [Compound 9]
- IC50 [1]: > 200000 nM
- IC50 [2]: 41 nM
- IC50 [3]: 62 nM
